Test results: patent US20080249141A1, “Co-therapy with and combinations of statins and 1,4-dihydropyridine-3,5-dicarboxydiesters” (priority 2007, published 2008)

Conditions: patient

For `CC(C)c1c(C(=O)Nc2ccccc2)c(-c2ccccc2)c(-c2ccc(F)cc2)n1CC[C@@H](O)C[C@@H](O)CC(=O)[O-].CC(C)c1c(C(=O)Nc2ccccc2)c(-c2ccccc2)c(-c2ccc(F)cc2)n1CC[C@@H](O)C[C@@H](O)CC(=O)[O-].[Ca+2]` [amorphous atorvastatin calcium], the “therapeutic effectiveness after change from crystalline atorvastatin calcium” value (20 mg once daily with 10 mg amlodipine) was “without change in the therapeutic effectiveness”.
With `CC(C)c1c(C(=O)Nc2ccccc2)c(-c2ccccc2)c(-c2ccc(F)cc2)n1CC[C@@H](O)C[C@@H](O)CC(=O)[O-].CC(C)c1c(C(=O)Nc2ccccc2)c(-c2ccccc2)c(-c2ccc(F)cc2)n1CC[C@@H](O)C[C@@H](O)CC(=O)[O-].[Ca+2]` [crystalline atorvastatin calcium] the therapeutic effect (20 mg once a day, co-administered 10 mg amlodipine once daily) was “good therapeutic effect”.
